According to paper PMC2645942 (Journal of medicinal chemistry, 2008):

How the values were obtained:
[1] = target: αβγF77C (α1β2γ2F77C GABAA receptor) (Rattus norvegicus, UniProt P18508+P62813, F115C/INS375LLRMFSFK); assay: Radioligand binding, αβγF77C mutant
[2] = target: αD97Cβγ (α1D97Cβ2γ2 GABAA receptor) (Rattus norvegicus, UniProt P18508+P62813, D124C/INS375LLRMFSFK); assay: Radioligand binding, αD97Cβγ mutant
[3] = target: αY209Cβγ (α1Y209Cβ2γ2 GABAA receptor) (Rattus norvegicus, UniProt P18508+P62813, INS375LLRMFSFK/Y236C); assay: Radioligand binding, αY209Cβγ mutant

Measured: specific binding of radioligand

CCOC(=O)c1ncn2c1CN(C)C(=O)c1cc(F)ccc1-2 [Ro15-1788, ethyl 8-fluoro-5,6-dihydro-5-methyl-6-oxo-4H-imidazo[1,5-a][1,4]benzodiazepine-3-carboxylate]
not measurable: all assays above

CN1C(=O)CN=C(c2ccccc2F)c2cc([N+](=O)[O-])ccc21 [flunitrazepam]
not measurable: all assays above
